The subject of one assay is 42-MG-BA (Glioblastoma). The assay can be described thus: Bliss excess, mean over the matrix (fraction); higher = more synergy. Put shortly: (§1)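 Cell lines in DMEM/F12 or RPMI with 10% FBS were plated in 1536-well plates, held 24 hours at 37°C, 5% CO2, then given two-drug dose matrices for 72 hours (DMSO typically 0.2%). Viability was read by CellTiter-Glo 2.0 luminescence and scaled as inhibition from 0 (vehicle wells) to 1 (blank wells). Combination Emax is the second-highest inhibition in the matrix; Bliss excess is observed combination effect minus expected EA + EB − EA·EB, EA and EB being single-agent effects.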

The subject of assay [1] is Daoy (Other Solid Carcinomas). The assay is described as above. Put shortly: as §1
Assay [2] has as its system HO-1-N-1 (Oral Cavity Carcinoma). The description is as above. Put shortly: as §1
For assay [3], the system named is Hs-578-T (Breast Carcinoma). The description is as above. Put shortly:
as §1

Assay [4] has as its system HuP-T4 (Pancreatic Carcinoma). The description is as above. Put shortly:
as §1

Assay [5] relates to KYSE-520 (Esophageal Squamous Cell Carcinoma). The description is as above. Put shortly:
as §1

For assay [6], the system named is MDA-MB-361 (Breast Carcinoma). The assay is described as above. Put shortly: as §1
In assay [7] the test system is MFE-296 (Endometrial Carcinoma). Described as above. Put shortly:
as §1

Assay [8] deals with NCI-H1869 (Non-Small Cell Lung Carcinoma). Described as above. Put shortly: as §1
The subject of a further assay is NOS-1 (Osteosarcoma). The description is as above. Put shortly:
as §1

The subject of assay [9] is Ramos-2G6-4C10 (Burkitt's Lymphoma). The description is as above. Put shortly: as §1
In assay [10] the test system is SNU-5 (Gastric Carcinoma). The description is as above. Put shortly:
as §1

A further assay relates to T98G (Glioblastoma). The assay is described as above. Put shortly: as §1
For assay [11], the system named is NCI-H1869 (Non-Small Cell Lung Carcinoma). The assay can be described thus: combination Emax (second highest fraction inhibited in the dose matrix, 72 h); higher = more inhibition; extreme values may be limits of the assay. Put shortly: as §1
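Wherever Bliss excess, mean over the matrix is given: after 72 h of two-drug dosing.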

On to `C=CCn1c(=O)c2cnc(Nc3ccc(N4CCN(C)CC4)cc3)nc2n1-c1cccc(C(C)(C)O)n1` [AZD1775] + C1CN(CCC1(C(=O)N[C@@H](CCO)C2=CC=C(C=C2)Cl)N)C3=NC=NC4=C3C=CN4 [Capivasertib] (first compound max 3 µM, partner max 3 µM), for which the Bliss excess is -0.0419 in the assay with 42-MG-BA (Glioblastoma); -0.0474 in assay [1]; 0.0595 in assay [2]; -0.102 in [3]; -0.0779 in [4]; -0.0129 in assay [5]. Further, the Bliss excess in assay [6] was -0.0156; in assay [7], -0.0091; in [8], 0.0342; in the assay on NOS-1 (Osteosarcoma) it was 0.0118; in [9] it was 0.0099; in assay [10], -0.0655. Further, the Bliss excess with T98G (Glioblastoma) is 0.0076. Besides, in assay [11], the “combination Emax” value came out at 0.388.

On to `CN(C)CCCOc1ccc(-c2ccc3ncc4c(c3c2)n(C2CCOCC2)c(=O)n4C)cn1` [AZD0156] + O=C(c1cc(Cc2n[nH]c(=O)c3ccccc23)ccc1F)N1CCN(C(=O)C2CC2)CC1 [Olaparib] (first compound max 3 µM, partner max 3 µM), for which the Bliss excess in the assay on 42-MG-BA (Glioblastoma) was 0.0602; in [1], 0.0714; in [2] it was 0.0618; in assay [3], 0.0937; in [4], 0.125; in assay [5], -0.0172. The Bliss excess was 0.0254 in assay [6]; -0.0153 in assay [7]; -0.0306 in assay [8]; 0.0594 in the assay on NOS-1 (Osteosarcoma); 0.0928 in assay [9]; 0.015 in assay [10]. Moreover, the Bliss excess with T98G (Glioblastoma) was -0.0085. Moreover, the “combination Emax” value in assay [11] is 0.19.

Turning to `Cc1c2c(nn1C)CSCc1cc(n(C)n1)CSc1cc(c3ccccc3c1)OCCCc1c(C(=O)O)n(C)c3c-2c(Cl)ccc13` [AZD5991] + CN(C)CCCOc1ccc(-c2ccc3ncc4c(c3c2)n(C2CCOCC2)c(=O)n4C)cn1 [AZD0156] (first compound max 1 µM, 7x7, partner max 1 µM), the Bliss excess was 0.0259 in the assay with 42-MG-BA (Glioblastoma); 0.0145 in assay [1]; -0.0044 in assay [2]; 0.0816 in assay [3]; 0.0351 in assay [4]; 0.0045 in assay [5]. The Bliss excess was -0.016 in [6]; 0.0092 in assay [7]; -0.0581 in the assay on NOS-1 (Osteosarcoma); 0.0226 in [9]; 0.0154 in [10]; 0.008 in the assay with T98G (Glioblastoma).

As to `COc1nnc2ccc(N3CCC(c4ccc(OCCN5CCN(C)C(=O)[C@H]5C)cc4)CC3)nn12` [AZD5153] + C=CCn1c(=O)c2cnc(Nc3ccc(N4CCN(C)CC4)cc3)nc2n1-c1cccc(C(C)(C)O)n1 [AZD1775] (first compound max 1 µM, partner max 1 µM), the Bliss excess is -0.0577 in the assay with 42-MG-BA (Glioblastoma); -0.0196 in assay [1]; -0.0551 in assay [2]; -0.0661 in assay [3]; -0.0435 in assay [4]; -0.0399 in [5]. In addition, the Bliss excess in [6] is -0.136; in assay [7] it was -0.0541; in the assay with NOS-1 (Osteosarcoma), -0.0371; in [9], -0.0657; in assay [10], -0.0759; with T98G (Glioblastoma), -0.0092.

As for `CS(=O)(=O)CCNCc1ccc(-c2ccc3ncnc(Nc4ccc(OCc5cccc(F)c5)c(Cl)c4)c3c2)o1` [Lapatinib] + C[C@@H](Oc1cc(-c2cnn(C3CCNCC3)c2)cnc1N)c1c(Cl)ccc(F)c1Cl [Crizotinib] (first compound max 10 µM, 7x7, partner max 10 µM), the Bliss excess in the assay on 42-MG-BA (Glioblastoma) was -0.0709; in [1] it was -0.0297; in [2] it was -0.0493; in [3], -0.0984; in assay [4], 0.0261; in assay [5] it was -0.0352. Moreover, the Bliss excess in assay [6] was 0.0278; in assay [7], -0.0288; with NOS-1 (Osteosarcoma) it was -0.0114; in assay [9], -0.113; in assay [10] it was 0.0306; in the assay on T98G (Glioblastoma) it was -0.0861.

Take `Cc1c2c(nn1C)CSCc1cc(n(C)n1)CSc1cc(c3ccccc3c1)OCCCc1c(C(=O)O)n(C)c3c-2c(Cl)ccc13` [AZD5991] + CC1(C)CCC(CN2CCN(c3ccc(C(=O)NS(=O)(=O)c4ccc(NCC5CCOCC5)c([N+](=O)[O-])c4)c(Oc4cnc5[nH]ccc5c4)c3)CC2)=C(c2ccc(Cl)cc2)C1 [Venetoclax] (first compound max 1 µM, 7x7, partner max 1 µM): the Bliss excess is -0.025 in the assay with 42-MG-BA (Glioblastoma); 0.0496 in [1]; 0.0055 in assay [2]; -0.0513 in assay [3]; -0.0106 in assay [4]; -0.0306 in assay [5]. Moreover, the Bliss excess was 0.0194 in [6]; -0.002 in assay [7]; 0.0241 in the assay with NOS-1 (Osteosarcoma); 0.0339 in [9]; -0.0127 in [10]; 0.0004 in the assay on T98G (Glioblastoma).
